Test results from US12544392B2, “Treatment of adenovirus infection or disease associated with adenovirus infection” (SymBio Pharmaceuticals Limited, priority 2023, dated 2026).

Test: Human clinical study of once-weekly IV BCV (Example 4): adverse events
Type: in vivo
Settings: cohort 4: 0.4 mg/kg (20 mg/dose if body weight ≥50 kg) IV once weekly
Procedure: The study duration is at least 9 weeks, based on a screening period of 1 week, a treatment period of at least 4 weeks, and post-treatment follow-up period of 30 days. In the screening, after informed consent has been obtained from the patients, a screening evaluation is conducted to determine eligibility for the study. On the first day of the first week of the treatment period, patients are assigned a dose based on the applicable cohort (see the section 4.1.3 Cohorts 4-6 above). The duration of treatment is a minimum of 4 weeks and a maximum of 14 weeks, and termination is based on the treatment stopping criteria as described below. For patients who, at the physician's discretion, are assessed as being at high risk for AdV infection/recurrence of disease, the treatment period may be extended for up to 10 weeks, even after the 4-week treatment period is completed, if the AdV is not detected by the two most recent consecutive assays with an interval of 3 days at least. All patients are followed up for 30 days after the last dosing. Adverse events are evaluated according to the National Cancer Institute Common Terminology Criteria for Adverse Events (NCI CTCAE) version 5.0 (grade 1-5). In cohort 4, patients are enrolled in the initially planned dosing regimen of 0.4 mg/kg or 20 mg IV weekly. […]

Compound: CCCCCCCCCCCCCCCCOCCCOP(=O)(O)CO[C@H](CO)Cn1ccc(N)nc1=O [BCV, [(2S)-1-(4-amino-2-oxopyrimidin-1-yl)-3-hydroxypropan-2-yl]oxymethyl-(3-hexadecoxypropoxy)phosphinic acid]
- occurrence of adverse events: particularly suppressed
